This assay addresses T1, recombinant human Syk (GST-hSyk fusion protein) (Homo sapiens, UniProt P43405).
T1 construct: purchased Carna Biosciences 08-176
The assay can be described thus: Homogeneous Time-Resolved Fluorescence (HTRF) assay for the recombinant human Syk enzyme. It is filed as biochemical. The following applies: 10-dose titration, 25 μM ATP. Summed up: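 IC50 came from a four-parameter fit over ten doses, 10 μM to 0.508 nM, with HTRF read-out (Eu-anti-pTyr antibody, SA-APC, EDTA stop, 30 min). The enzyme, 5 pM GST-hSyk, met compound for 10 min, then phosphorylated 250 nM biotin-peptide with 25 μM ATP and 5 mM Mg for 45 min at room temperature, pH 7.5.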

Where [1] appears, read: IC50 class, read-out: rhSYK Activity.

Like-named read-outs stand apart in the source and are kept apart here.

For the compound `Cc1cc(Nc2ncc(F)c(C(F)F)n2)cc(-c2cnn(CC(C)(O)CC#N)c2)c1` (centres unmarked) [Example 20.5, 4-[4-(3-{[4-(difluoromethyl)-5-fluoropyrimidin-2-yl]amino}-5-methylphenyl)-1H-pyrazol-1-yl]-3-hydroxy-3-methylbutanenitrile], under setting [1], the IC50 is at most 100 nM.

As to `Cc1cc(Nc2ncc(F)c(C(F)F)n2)cc(-c2cnn(CC(C)(O)CC#N)c2)c1` (centres unmarked) [Example 20.6, 4-[4-(3-{[4-(difluoromethyl)-5-fluoropyrimidin-2-yl]amino}-5-methylphenyl)-1H-pyrazol-1-yl]-3-hydroxy-3-methylbutanenitrile], the IC50 under setting [1] was at most 100 nM.

In the case of `Cc1cc(Nc2nccc(C(F)F)n2)cc(-c2cnn(CC(C)(O)CC#N)c2)c1` (centres unmarked) [Example 20.7, 4-[4-(3-{[4-(difluoromethyl)pyrimidin-2-yl]amino}-5-methylphenyl)-1H-pyrazol-1-yl]-3-hydroxy-3-methylbutanenitrile], the IC50 under setting [1] is at most 100 nM. `Cc1cc(Nc2nccc(C(F)F)n2)cc(-c2cnn(CC(C)(O)CC#N)c2)c1` (centres unmarked) [Example 20.8, 4-[4-(3-{[4-(difluoromethyl)pyrimidin-2-yl]amino}-5-methylphenyl)-1H-pyrazol-1-yl]-3-hydroxy-3-methylbutanenitrile]: the IC50 under setting [1] was at most 100 nM.

Turning to `Cc1cc(Nc2nccc(C(C)(F)F)n2)cc(-c2cnn(CC(C)(O)CC#N)c2)c1` (centres unmarked) [Example 20.9, 4-[4-(3-{[4-(1,1-difluoroethyl)pyrimidin-2-yl]amino}-5-methylphenyl)-1H-pyrazol-1-yl]-3-hydroxy-3-methylbutanenitrile], under setting [1], the IC50 is at most 100 nM. The same measure, in the same setting: the figure for `Cc1cc(Nc2nccc(C(C)(F)F)n2)cc(-c2cnn(CC(C)(O)CC#N)c2)c1` (centres unmarked) [Example 20.10, 4-[4-(3-{[4-(1,1-difluoroethyl)pyrimidin-2-yl]amino}-5-methylphenyl)-1H-pyrazol-1-yl]-3-hydroxy-3-methylbutanenitrile] is at most 100 nM; for `CC(=O)C(C)n1cc(-c2cc(C)cc(Nc3nccc(C(F)F)n3)c2)cn1` (centres unmarked) [Example 21.3, 3-[4-(3-{[4-(difluoromethyl)pyrimidin-2-yl]amino}-5-methylphenyl)-1H-pyrazol-1-yl]butan-2-one] it is at most 100 nM; for `Cc1cc(Nc2cc(C(F)(F)F)ccn2)nc(-c2cnn(CC(C)(O)CO)c2)c1` (centres unmarked) [Example 21.4, 2-methyl-3-[4-(4-methyl-6-{[4-(trifluoromethyl)pyridin-2-yl]amino}pyridin-2-yl)-1H-pyrazol-1-yl]propane-1,2-diol] it is at most 100 nM.

Turning to `Cc1cc(Nc2cc(C(F)(F)F)ccn2)nc(-c2cnn(CC(C)(O)CO)c2)c1` (centres unmarked) [Example 21.5, 2-methyl-3-[4-(4-methyl-6-{[4-(trifluoromethyl)pyridin-2-yl]amino}pyridin-2-yl)-1H-pyrazol-1-yl]propane-1,2-diol], under setting [1], the IC50 was at most 100 nM. Consider `Cc1cc(Nc2nccc(C(F)F)n2)cc(-c2cnn(CC(C)(O)C(C)(C)O)c2)c1` (centres unmarked) [Example 21.6, 1-[4-(3-{[4-(difluoromethyl)pyrimidin-2-yl]amino}-5-methylphenyl)-1H-pyrazol-1-yl]-2,3-dimethylbutane-2,3-diol], for which, under setting [1], the IC50 was at most 100 nM. Still for that read-out and setting: the figure for `Cc1cc(Nc2nccc(C(F)F)n2)cc(-c2cnn(CC(C)(O)C(C)(C)O)c2)c1` (centres unmarked) [Example 21.7, 1-[4-(3-{[4-(difluoromethyl)pyrimidin-2-yl]amino}-5-methylphenyl)-1H-pyrazol-1-yl]-2,3-dimethylbutane-2,3-diol] is at most 100 nM; for `Cc1cc(Nc2nccc(C(F)F)n2)cc(-c2cnn(C(C)C(C)(O)CO)c2)c1` (centres unmarked) [Example 22.3, 3-[4-(3-{[4-(difluoromethyl)pyrimidin-2-yl]amino}-5-methylphenyl)-1H-pyrazol-1-yl]-2-methylbutane-1,2-diol] it is at most 100 nM. Still for that read-out and setting: the figure for `Cc1cc(Nc2nccc(C(C)(F)F)n2)cc(-c2cnn(CC(C)(O)C(C)(C)O)c2)c1` (centres unmarked) [Example 22.4, 1-[4-(3-{[4-(1,1-difluoroethyl)pyrimidin-2-yl]amino}-5-methylphenyl)-1H-pyrazol-1-yl]-2,3-dimethylbutane-2,3-diol] is at most 100 nM; for `Cc1cc(Nc2nccc(C(C)(F)F)n2)cc(-c2cnn(CC(C)(O)C(C)(C)O)c2)c1` (centres unmarked) [Example 22.5, 1-[4-(3-{[4-(1,1-difluoroethyl)pyrimidin-2-yl]amino}-5-methylphenyl)-1H-pyrazol-1-yl]-2,3-dimethylbutane-2,3-diol] it is at most 100 nM. As for `Cc1cc(Nc2nccc(C(F)F)n2)cc(-c2cnn(C3CCCC(C)(O)C3O)c2)c1` (centres unmarked) [Example 22.6, 3-[4-(3-{[4-(difluoromethyl)pyrimidin-2-yl]amino}-5-methylphenyl)-1H-pyrazol-1-yl]-1-methylcyclohexane-1,2-diol], the IC50 by setting is: (read-out: rhSYK IC50) 1.7 nM; under setting [1], at most 100 nM. The like results for `Cc1cc(Nc2nccc(C(F)F)n2)cc(-c2cnn(C3CCC(C)(C)C(O)C3O)c2)c1` (centres unmarked) [Example 22.7, 6-[4-(3-{[4-(difluoromethyl)pyrimidin-2-yl]amino}-5-methylphenyl)-1H-pyrazol-1-yl]-3,3-dimethylcyclohexane-1,2-diol] were, in that order, 2.6 nM and at most 100 nM.

Consider `Cc1cc(Nc2nccc(C(F)F)n2)cc(-c2cnn(C3CCC(C)(C)C(O)C3(C)O)c2)c1` (centres unmarked) [Example 22.8, 6-[4-(3-{[4-(difluoromethyl)pyrimidin-2-yl]amino}-5-methylphenyl)-1H-pyrazol-1-yl]-1,3,3-trimethylcyclohexane-1,2-diol], for which the IC50 was 5.9 nM (read-out: rhSYK IC50) and at most 100 nM under setting [1]. For the compound `Cc1cc(Nc2nccc(C(F)F)n2)cc(-c2cnn(C3CC(C)(C)CC(C)(O)C3O)c2)c1` (centres unmarked) [Example 22.9, 3-[4-(3-{[4-(difluoromethyl)pyrimidin-2-yl]amino}-5-methylphenyl)-1H-pyrazol-1-yl]-1,5,5-trimethylcyclohexane-1,2-diol], the IC50 by setting is: (read-out: rhSYK IC50) 1.1 nM; under setting [1], at most 100 nM. The like results for `Cc1cc(Nc2nccc(C(F)F)n2)cc(-c2cnn(C3CC(C)(C)CC(C)(O)C3O)c2)c1` (centres unmarked) [Example 22.10] were, in that order, 6.7 nM and at most 100 nM. Consider `Cc1cc(Nc2nccc(C(F)F)n2)cc(-c2cnn(C3CCCC(C)(O)C3(C)O)c2)c1` (centres unmarked) [Example 22.11, 3-[4-(3-{[4-(difluoromethyl)pyrimidin-2-yl]amino}-5-methylphenyl)-1H-pyrazol-1-yl]-1,2-dimethylcyclohexane-1,2-diol], for which the IC50 was 2.5 nM (read-out: rhSYK IC50) and at most 100 nM under setting [1].

In the case of `Cc1cc(Nc2nccc(C(F)F)n2)cc(-c2cnn(C3CCCC(C)(O)C3(C)O)c2)c1` (centres unmarked) [Example 22.12, 3-[4-(3-{[4-(difluoromethyl)pyrimidin-2-yl]amino}-5-methylphenyl)-1H-pyrazol-1-yl]-1,2-dimethylcyclohexane-1,2-diol], the IC50 (read-out: rhSYK IC50) was 7.4 nM and the IC50 under setting [1] was at most 100 nM. The like results for `Cc1cc(Nc2nccc(C(F)F)n2)cc(-c2cnn(C3CCC(O)C3(C)O)c2)c1` (centres unmarked) [Example 22.13, 5-[4-(3-{[4-(difluoromethyl)pyrimidin-2-yl]amino}-5-methylphenyl)-1H-pyrazol-1-yl]-1-methylcyclopentane-1,2-diol] were, in that order, 3.6 nM and at most 100 nM. Consider `Cc1cc(Nc2nccc(C(F)F)n2)cc(-c2cnn(C3CCC(O)C3(C)O)c2)c1` (centres unmarked) [Example 22.14, 5-[4-(3-{[4-(difluoromethyl)pyrimidin-2-yl]amino}-5-methylphenyl)-1H-pyrazol-1-yl]-1-methylcyclopentane-1,2-diol], for which the IC50 was 5.8 nM (read-out: rhSYK IC50) and at most 100 nM under setting [1]. As to `Cc1cc(Nc2nccc(C(F)F)n2)cc(-c2cnn(C3CCCCC(O)C3O)c2)c1` (centres unmarked) [Example 22.15, 3-[4-(3-{[4-(difluoromethyl)pyrimidin-2-yl]amino}-5-methylphenyl)-1H-pyrazol-1-yl]cycloheptane-1,2-diol], the IC50 by setting is: (read-out: rhSYK IC50) 2.6 nM; under setting [1], at most 100 nM. `Cc1cc(Nc2nccc(C(F)F)n2)cc(-c2cnn(CC3OC(=O)NC3C3CC3)c2)c1` (centres unmarked) [Example 23.17, 4-cyclopropyl-5-{[4-(3-{[4-(difluoromethyl)pyrimidin-2-yl]amino}-5-methylphenyl)-1H-pyrazol-1-yl]methyl}-1,3-oxazolidin-2-one]: the IC50 under setting [1] was at most 100 nM.

In the case of `Cc1cc(Nc2nccc(C(F)F)n2)cc(-c2cnn(CCNC(=O)C3CC3)c2)c1` [Example 26.1, N-(2-(4-(3-((4-(Difluoromethyl)pyrimidin-2-yl)amino)-5-methylphenyl)-1H-pyrazol-1-yl)ethyl)cyclopropanecarboxamide], the IC50 runs as follows: (read-out: rhSYK IC50) 25.2 nM; under setting [1], at most 100 nM. Regarding `Cc1cc(Nc2nccc(C(F)F)n2)cc(-c2cnn(CC(C)(C)NC(=O)C3CC3)c2)c1` [Example 26.2, N-{2-[4-(3-{[4-(difluoromethyl)pyrimidin-2-yl]amino}-5-methylphenyl)-1H-pyrazol-1-yl]-1,1-dimethylethyl}cyclopropanecarboxamide], the IC50 under setting [1] is at most 100 nM. In the case of `COCC(=O)NC(C)(C)Cn1cc(-c2cc(C)cc(Nc3nccc(C(F)F)n3)c2)cn1` [Example 26.3, N-{2-[4-(3-{[4-(difluoromethyl)pyrimidin-2-yl]amino}-5-methylphenyl)-1H-pyrazol-1-yl]-1,1-dimethylethyl}-2-methoxyacetamide], under setting [1], the IC50 was at most 100 nM. On the same count and under the same terms, the figure for `Cc1cc(Nc2nccc(C(F)F)n2)cc(-c2cnn(CCNC(=O)CC#N)c2)c1` [Example 26.4, 2-cyano-N-{2-[4-(3-{[4-(difluoromethyl)pyrimidin-2-yl]amino}-5-methylphenyl)-1H-pyrazol-1-yl]ethyl}acetamide] is at most 100 nM; for `COCC(=O)NCCn1cc(-c2cc(C)cc(Nc3nccc(C(F)F)n3)c2)cn1` [Example 26.5, N-{2-[4-(3-{[4-(difluoromethyl)pyrimidin-2-yl]amino}-5-methylphenyl)-1H-pyrazol-1-yl]ethyl}-2-methoxyacetamide] it is at most 100 nM.

For the origin of these results see patent US9242984B2, “Pyrazolyl derivatives as Syk inhibitors” (Merck Sharp & Dohme Corp., priority 2012, dated 2016).
